These results are taken from US6372783B1, “Enantiomeric compounds for treatment of cardiac arrhythmias and methods of use” (Aryx Therapeutics, priority 1999, dated 2002).

For one data set, the system named is Male Sprague-Dawley rats. Description: Anti-arrhythmic activity in anesthetized rats (benzene/adrenaline challenge; VPB, heart rate, EKG intervals). The format is in vivo, rat. The note with it: for PR interval / QRS interval / QT interval / Heart rate (beats/minute) / Inhibition of tachycardia / Number of VPB / Inhibition of VPB: isolated enantiomer as compared to respective racemate; for PR interval / QRS interval / QT interval: EKG; for Heart rate (beats/minute) / Inhibition of tachycardia: adrenaline injection; for Number of VPB / Inhibition of VPB: benzene/adrenaline challenge; for Inhibition of VPB: 4 mg/kg i.v. then 12 mg/kg/h for 2 hours; for VPB-inhibiting activity at the end of the washout period: time 180 min; for inhibition of the formation of ventricular premature beats (VPB) during drug administration: whole period of drug administration (time 0 to 120 min); for protection against adrenaline-induced tachyarrhythmia / tachycardia (heart rate): drug administered time 0 to 120 minutes. The protocol: Anti-arrhythmic Activity in Anesthetized Rats.
Male Sprague-Dawley rats with body weights of 410±30 g (Harlan Sprague Dawley Inc., Indianapolis, Ind.), were anesthetized with sodium pentobarbital (50 mg/kg i.p.—Butler Co., Columbus, Ohio). The skin from the neck area was removed and the jugular veins on both sides were cleared of connective tissue. Both jugular veins and the left carotid artery were isolated, and the latter tied up cranially with a surgical silk (ETHICON 4-0, Ethicon Inc., Australia). A plastic catheter ([…] 19 ga, Vecton Dickinson, Sandy, Utah), filled with a solution containing 10% sodium heparin (Elkins-Sinn Inc., Cherry Hill, N.J.) in normal saline (100 U/ml sodium heparin), was introduced into the artery and fixed with surgical silk.
The catheter was connected to a pressure transducer (OHMEDA P23-XL, Ohmeda Medical Devices Division Inc., Madison, Wis.), filled with the same heparinized 0.9% NaCl solution, to register beat-to-beat arterial pressure. Needle electrodes were inserted s.c., and together with the pressure transducer, were joined to a GOULD TA 2000 recorder. Leads II, aVF and intraarterial blood pressure were monitored simultaneously throughout the experiments and recorded at certain intervals at 50 and 200 mm/sec paper speed.
The surgery was completed with an incision on the trachea where a short plastic tubing was placed and the animal was connected to a rodent-model ventilator (HARVARD Model 683, Harvard Apparatus, Inc., Holliston, Mass.). The animals were ventilated in a controlled way, depending on their spontaneous breathing frequency (55-75/min).
Drug administrations were carried out through i.v. catheters (TERUMO 24 GA*¾″, Terumo Medical Corp., Elkton, Md.) inserted into both jugular veins. The left side was used for drug infusions by means of a syringe pump (SAGE INSTRUMENTS, Model 341B, Orion Res. Inc., Boston, Mass.), and the right side was used for adrenaline injections. The experiments were started after at least 15 minutes of stabilization. Benzene/adrenaline challenges were performed as follows: the respirator inlet was connected to a 50-ml bubbler half-full with benzene (Fisher Scientific, Fair Lawn, N.J.) so that the inspired air was saturated with benzene vapor. The animal was ventilated with benzene vapor for two minutes. The tidal volume was typically 1 ml/100 g of animal. During the last 30 seconds of benzene ventilation, 10 μg/kg adrenaline solution (in 0.9% NaCl) was injected into the right jugular vein. […] These arrhythmias could be elicited repeatedly. After three control VTs (at −30, −20 and −10 minutes), the test compounds were injected slowly during 30 seconds at a dose of 4 mg/kg i.v., immediately followed by a slow infusion of 12 mg/kg/h for 2 hours. The flow rate during the infusion period was 1 ml/h.
There were 5 rats per test compound and each animal served as its own control. The ability of the different drugs to suppress arrhythmias was tested against repeated benzene/adrenaline challenges at 5, 15, 30,45, 60, 90, 120 (end of drug infusion), 135, 150, 165 and 180 minutes after the i.v. bolus injection. The amplitudes of the systolic arterial pressure and diastolic arterial pressure […] with the help of a pressure-amplitude calibration curve. Heart rate, number of ventricular complexes during the occurrence of VTs and VPBs, and certain ECG parameters (PR, QRS, QT durations and RR cycle lengths in msec) were also recorded and measured manually. At each time-point, 3-5 cycles were measured and the average values were entered into EXCEL Windows 97. The average and standard deviation for the five experimental animals per compound were calculated.

The nature of data set [1]: Half-life in human plasma in vitro. The class given is in vitro ADME. As to conditions: for half-life in human plasma: 37° C. The protocol: Half-life in Human Plasma in Vitro.
Venous blood (60 ml) was collected in heparinized 1 5-ml Vacutainer® tubes from the forearm of five human volunteers. Each tube contained 1,000 units of heparin sodium salt. The blood was immediately centrifuged at 2,000 g for 10 minutes and the plasma was collected. Immediately after collection, the plasma was divided into 2-ml aliquots in borosilicate glass tubes (5-ml capacity) capped with a plastic stopper. The tubes were then equilibrated in a 37° C.-water bath for at least 15 minutes before the test samples were added.
Stock solutions were prepared by dissolving 25 μmoles (about 18 mg) of each of the test compounds in 10 ml of deionized water. To each of the glass tubes containing 2 ml of fresh plasma, equilibrated at 37° C., was added 40 μl of the stock solutions (one test compound per tube). The plasma/stock solutions were then mixed. Samples (250 μl) were collected at time 0 (immediately after mixing test compounds in plasma) and then at 30, 60, 90, 120, 180, 240, and 300 minutes. The test tubes were capped, to avoid concentration due to evaporation, and left in the 37° C. bath during the entire experiment. Each aliquot was immediately introduced into a 1.5-ml microfuge tube containing 20 μl of a 0.01% solution of diethyl paranitrophenylphosphate (paraoxon) in ethanol in order to inhibit esterase activity. The tubes were then capped and vortexed, then kept at −20° C. until analysis. The samples were thawed and mixed with 750 μl of a 0.1% solution of trifluoroacetic acid (TFA) in acetonitrile, vortexed for thorough mixing, and then centrifuged at 12,000 g for 15 minutes. The supernatant was collected for injection in the HPLC system.
The HPLC mobile phase consisted of acetonitrile and water containing 0.1% TFA and 400 mg/L benzyltriethylammoniumchloride (BTEAC) in the following proportions and flow rates: 85% acetonitrile and 15% water at 2.0 ml/min. The detection wavelength was set at 242 nm, and the injected volume was 100 μL. The HPLC peaks were recorded, and the integrated values were plotted against time using the SIGMAPLOT software version 4.0 for WINDOWS. The resulting curves were fitted to a first-order exponential decay equation from which hydrolysis half-lives were calculated.

The mark [2] stands for this setting: benzene vapors and adrenaline challenge.

Take `CC[C@H](C)OC(=O)Cc1oc2ccccc2c1C(=O)c1cc(I)c(OCCN(CC)CC)c(I)c1` [Compound S-2042, (S)-sec-Butyl2-[3-(3,5-diiodo-4-(2-diethylaminoethyloxy)benzoyl)]benzofurane-acetate]: the “effect on QT segment / interval of the EKG (Class-III properties), potency” value in the data set on Male Sprague-Dawley rats (anesthetized rats, comparison of the forms) is “most potent and the longest acting”. Besides, in the data set with Male Sprague-Dawley rats (anesthetized rats), the PR interval entry was “longer”, the QRS interval entry was “longer”, the QT interval result is reported as “longer” and the “Heart rate (beats/minute)” value is given as “lower”. Besides, in the data set on Male Sprague-Dawley rats (anesthetized rats), the Inhibition of tachycardia entry is “longer”, the “Number of VPB” value is “lower” and the “Inhibition of VPB” value is on record as “longer”. In the data set on Male Sprague-Dawley rats, the “VPB-inhibiting activity at the end of the washout period” value (“VPB-inhibiting activity at the end” below) is reported as “still retained part of its activity”. Also, the “inhibition of the formation of ventricular premature beats (VPB) during drug administration” value with Male Sprague-Dawley rats (setting [2]) is “totally inhibited”.
With `CCN(CC)CCOc1c(I)cc(C(=O)c2c(CC(=O)O[C@H](C)C(C)C)oc3ccccc23)cc1I` [Compound R-2055, (R)-(3-Methyl)-2butyl 2-[3-(3,5-diiodo-4-(2-diethylaminoethyloxy)benzoyl)]benzo-furaneacetate], in the data set on Male Sprague-Dawley rats (anesthetized rats), the PR interval result was “shorter”, the QRS interval result is listed as “longer”, the QT interval entry is recorded as “no change” and the “Heart rate (beats/minute)” value is reported as “lower”. Also, in the data set on Male Sprague-Dawley rats (anesthetized rats), the Inhibition of tachycardia entry is “longer”, the “Number of VPB” value is “lower” and the “Inhibition of VPB” value is “longer”. The “VPB-inhibiting activity at the end” value in the data set with Male Sprague-Dawley rats is on record as “still retained part of its activity”. Besides, the “inhibition of the formation of ventricular premature beats (VPB) during drug administration” value in the data set on Male Sprague-Dawley rats (setting [2]) was “totally inhibited”. Moreover, the “half-life in human plasma” value in data set [1] turned out to be 11.7 h.
Regarding `CC[C@H](C)OC(=O)Cc1oc2ccccc2c1C(=O)c1cc(I)c(OCCN(CC)CC)c(I)c1` [ATI-2042], the “protection against adrenaline-induced tachyarrhythmia / tachycardia (heart rate)” value in the data set with Male Sprague-Dawley rats (comparison of the forms) is listed as “very good protection”. Besides, the “metabolism in human plasma” value in data set [1] is listed as “metabolized in human plasma by esterase enzymes”.
With `CCN(CC)CCOc1c(I)cc(C(=O)c2c(CC(=O)O[C@@H](C)C(C)C)oc3ccccc23)cc1I` [Compound S-2055, (S)-(3-Methyl)-2butyl 2-[3-(3,5-diiodod-4-(2-diethylaminoethyloxy)benzoyl)]benzo-furaneacetate], in the data set with Male Sprague-Dawley rats (anesthetized rats), the PR interval result is “shorter”, the QRS interval result is “longer”, the QT interval entry was “no change” and the “Heart rate (beats/minute)” value is reported as “lower”. In addition, in the data set with Male Sprague-Dawley rats (anesthetized rats), the Inhibition of tachycardia result was “longer”, the “Number of VPB” value is given as “lower” and the “Inhibition of VPB” value is “longer”. Also, the “VPB-inhibiting activity at the end” value in the data set with Male Sprague-Dawley rats is “completely inactive”. Besides, the “half-life in human plasma” value in data set [1] came to 8.8 h.
As to `CCN(CC)CCOc1c(I)cc(C(=O)c2c(CC(=O)OC(C)C(C)C)oc3ccccc23)cc1I` (stereo not shown) [ATI-2055], the “protection against adrenaline-induced tachyarrhythmia / tachycardia (heart rate)” value in the data set with Male Sprague-Dawley rats (comparison of the forms) is on record as “inhibits the tachycardia”. The “metabolism in human plasma” value in data set [1] is given as “metabolized in human plasma by esterase enzymes”.
For `CC[C@@H](C)OC(=O)Cc1oc2ccccc2c1C(=O)c1cc(I)c(OCCN(CC)CC)c(I)c1` [Compound R-2042, (R)-sec-Butyl2-[3-(3,5-diiodo-4-(2-diethylaminoethyloxy)benzoyl)]benzofurane-acetate], in the data set with Male Sprague-Dawley rats (anesthetized rats), the PR interval result is “shorter”, the QRS interval result is “no change”, the QT interval result is “no change” and the “Heart rate (beats/minute)” value was “lower”. Further, in the data set on Male Sprague-Dawley rats (anesthetized rats), the Inhibition of tachycardia entry is “longer”, the “Number of VPB” value was “lower” and the “Inhibition of VPB” value is recorded as “longer”. For the same compound, in the data set with Male Sprague-Dawley rats, the “VPB-inhibiting activity at the end” value is “completely inactive”.
Take `CC[C@H](C)OC(=O)Cc1oc2ccccc2c1C(=O)c1cc(I)c(OCCN(CC)CC)c(I)c1` [R,S-2042]: the “anti-arrhythmic activity (VPB inhibition) of the racemate relative to the enantiomers” value in the data set with Male Sprague-Dawley rats (setting [2]) is on record as “even less active than either the R- or the S-isomer”. Further, the “protection against adrenaline-induced tachyarrhythmia / tachycardia (heart rate)” value with Male Sprague-Dawley rats (comparison of the forms) is “least potent and shortest acting”.
